From patent publication US9546150B2, “Substituted quinazolin-4-ones for inhibiting ubiquitin specific protease 7” (HYBRIGENICS SA, priority 2011, dated 2017)

What was measured:
USP8 [1] = target: T1, USP8 (Homo sapiens, UniProt P40818); assay: GST-Ub52-Flag HTRF deubiquitinating enzyme assay, USP8
T1 sequence (P40818 1-1118): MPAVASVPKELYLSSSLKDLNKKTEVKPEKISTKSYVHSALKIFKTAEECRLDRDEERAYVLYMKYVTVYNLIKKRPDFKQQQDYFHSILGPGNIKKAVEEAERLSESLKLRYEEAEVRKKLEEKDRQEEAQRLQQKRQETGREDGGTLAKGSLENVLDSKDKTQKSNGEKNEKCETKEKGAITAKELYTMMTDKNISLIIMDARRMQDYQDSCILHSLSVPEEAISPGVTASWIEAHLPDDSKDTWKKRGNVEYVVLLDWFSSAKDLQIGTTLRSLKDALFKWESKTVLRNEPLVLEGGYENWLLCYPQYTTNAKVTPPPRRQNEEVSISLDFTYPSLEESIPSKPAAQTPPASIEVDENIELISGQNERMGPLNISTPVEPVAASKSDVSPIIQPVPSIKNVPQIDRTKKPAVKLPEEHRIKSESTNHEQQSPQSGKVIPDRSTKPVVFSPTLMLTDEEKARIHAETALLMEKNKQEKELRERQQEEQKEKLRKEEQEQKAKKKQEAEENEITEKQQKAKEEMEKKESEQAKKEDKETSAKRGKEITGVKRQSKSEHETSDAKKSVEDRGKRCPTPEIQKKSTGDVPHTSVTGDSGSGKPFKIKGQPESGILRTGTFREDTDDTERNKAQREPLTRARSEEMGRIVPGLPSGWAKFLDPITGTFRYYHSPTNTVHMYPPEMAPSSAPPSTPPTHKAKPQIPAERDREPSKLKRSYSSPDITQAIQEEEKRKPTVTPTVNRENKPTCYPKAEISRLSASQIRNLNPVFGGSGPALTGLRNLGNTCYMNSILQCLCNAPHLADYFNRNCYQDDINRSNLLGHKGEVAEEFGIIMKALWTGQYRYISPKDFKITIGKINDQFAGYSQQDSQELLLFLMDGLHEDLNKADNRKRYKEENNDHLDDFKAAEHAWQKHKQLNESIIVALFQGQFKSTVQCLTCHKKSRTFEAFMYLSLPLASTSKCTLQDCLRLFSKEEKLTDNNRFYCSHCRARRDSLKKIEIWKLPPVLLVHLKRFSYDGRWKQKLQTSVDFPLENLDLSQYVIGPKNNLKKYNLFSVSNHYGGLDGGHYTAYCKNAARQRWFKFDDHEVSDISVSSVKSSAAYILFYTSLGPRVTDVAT
From the text: The cDNA encoding USP8 was obtained by PCR amplification from placenta mRNA. USP8 cDNA was subcloned by PCR into a baculovirus expression vector (pFastBac-HT; Invitrogen). A cDNA encoding a mutated USP8 was generated by mutagenic PCR. […] The sequences were ascertained by sequencing of the entire open reading frame. Bacmids encoding USP8 were generated following DH10bac transposition. The corresponding bacmids were transfected into insect cells (Sf9). Viruses were recovered from culture supernatant and amplified twice. Insect cells (Sf9 or High Five; Invitrogen) were infected for 72 hours. […] Proteins were affinity purified on metal affinity resins (Talon Metal affinity resin; BD Biosciences). Bound materials were extensively washed in wash buffer (50 mM Sodium Phosphate pH 7.0; 300 mM NaCl; 10 mM imidazole; 0.5% Triton X-100; 10% glycerol) and eluted from the resin in 250 mM imidazole-containing wash buffer. Proteins were dialyzed in dialysis buffer (Tris HCl pH 7.6 20 mM; NaCl 200 mM; DTT 1 mM; EDTA 1 mM; 10% Glycerol).
A cDNA encoding the fusion protein between ubiquitin and the ribosomal protein L40 (ub52 or uba52 or ubiquitin-L40) was amplified from human RNA using a proprietary human placenta library. The cDNA was subcloned into a bacterial expression vector (pGEX-2T, GE Healthcare), including an additional flag tag at the carboxyl end of the encoded protein.
For production and purification of recombinant proteins, the plasmid pGEX-2T-Ub52-flag was transformed into E. coli BL21 (Stratagene), grown in LB medium supplemented with 100 mg/ml ampicillin (LB ampi) at 37° C. overnight and then diluted 1/100 in LB ampi. The cells were incubated at 37° C. until an A600=0.6-0.8 was reached. After induction with 0.1 mM isopropyl-β-D-thiogalactopyranoside (IPTG), the culture was incubated at 30° C. for 180 min.
Cells were harvested by centrifugation for 15 min at 7000×g at 4° C. Bacterial pellets were lysed in NETN (Tris HCl pH 8.0; EDTA 1 mM; NP40 0.5%; protease inhibitor cocktail, PMSF 1 mM) and briefly sonicated. Insoluble material was removed by centrifugation 30 min at 14000×g. […] Briefly, soluble fraction was incubated on Glutathione beads pre-equilibrated in NETN buffer+0.5% Milk for 120 min at 4° C. Flow Through was recovered. Beads were extensively washed: the last wash was performed in Tris HCl pH 7.6 20 mM; NaCl 100 mM; MgCl2 12 mM. Elutions were performed using 20 mM Reduced Glutathione in 50 mM Tris HCl pH 8.0, NaCl 120 mM. […] Elutions were dialysed over night at 4° C. in Tris HCl pH 7.6 20 mM; NaCl 50 mM; DTT 0.5 mM.
The use of GST-Ub52-Flag is based on the time-resolved measurement of fluorescence emitted by transfer in homogenous medium.
The assay is carried out on multiwell assay plates. The plates are analyzed on a PHERAstar fluorimeter (BMG) after an overnight incubation at 4° C.
The enzyme reaction is carried out by mixing GST-Ub52-flag solution with 5 μl of USP7 solution (200 pM final) or 5 μl of USP8 (400 pM final). This mixture is incubated for one hour at room temperature on a multiwell assay plate. […] The plate is read after an overnight incubation at 4° C. on a PHERAstar fluorimeter (BMG).
The decrease in the signal correlates with the increase in enzyme activity i.e. the cleavage of GST-Ub52-Flag substrate.
Data (mean values+/−standard deviation) were analyzed as % of control (no compound) and plotted as percentage versus the Log of the compound concentration using GraphPad (Prism).

USP5 = target: T2, USP5 (Homo sapiens, UniProt P45974); assay: USP5 activity assay, Ub-AMC substrate; assay type: biochemical; conditions: UbAMC substrate 300 nM, USP5 300 pM
T2 sequence (P45974 1-858): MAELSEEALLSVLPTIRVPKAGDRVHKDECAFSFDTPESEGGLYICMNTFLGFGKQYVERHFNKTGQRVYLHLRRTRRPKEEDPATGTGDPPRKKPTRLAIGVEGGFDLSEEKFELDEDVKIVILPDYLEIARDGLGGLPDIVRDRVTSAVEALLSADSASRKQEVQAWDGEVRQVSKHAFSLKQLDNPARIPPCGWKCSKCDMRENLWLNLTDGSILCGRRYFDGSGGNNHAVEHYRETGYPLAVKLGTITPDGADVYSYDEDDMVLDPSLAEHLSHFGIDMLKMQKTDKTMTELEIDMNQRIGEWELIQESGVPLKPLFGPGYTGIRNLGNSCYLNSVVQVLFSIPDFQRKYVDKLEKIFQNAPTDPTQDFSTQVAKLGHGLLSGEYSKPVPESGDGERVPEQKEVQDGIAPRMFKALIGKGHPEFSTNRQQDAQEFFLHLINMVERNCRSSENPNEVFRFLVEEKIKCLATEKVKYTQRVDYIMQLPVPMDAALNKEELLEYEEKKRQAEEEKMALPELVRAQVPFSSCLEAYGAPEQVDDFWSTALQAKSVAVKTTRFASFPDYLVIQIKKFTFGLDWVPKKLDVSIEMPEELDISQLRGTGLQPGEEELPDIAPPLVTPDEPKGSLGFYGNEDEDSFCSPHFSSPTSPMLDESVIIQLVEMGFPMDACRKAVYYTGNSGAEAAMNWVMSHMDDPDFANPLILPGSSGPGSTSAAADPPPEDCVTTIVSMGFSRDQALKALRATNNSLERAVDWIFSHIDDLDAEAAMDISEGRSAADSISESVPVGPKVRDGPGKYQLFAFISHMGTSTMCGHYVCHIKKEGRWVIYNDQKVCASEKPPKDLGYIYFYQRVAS
Procedure: USP5 was diluted in USP buffer (50 mM Tris HCl; 0.5 mM EDTA; 5 mM DTT; 0.01% Triton X-100; Bovine Serum Albumin 0.05 mg·ml^−1 pH 7.6). Compounds stocks (100 mM) were stored at −20° C. in DMSO.
(§1) Reactions were performed as duplicates in Black 384 well plates (small volume microplates; Greiner; 10 μl final reaction volume). The substrate concentration for USP5 was 300 nM Ub-AMC (Boston Biochem). The concentrations of the enzyme (USP5) in specificity assays was 300 pM. The concentrations were determined in order to perform specificity assays under initial velocities at fixed substrate concentration. Compounds were pre-incubated with enzymes for 30 minutes at 25° C. Reactions were initiated by addition of substrate to the plates containing the enzymes (+/− compounds) diluted in assay buffer. Reactions were incubated for 60 minutes at 37° C. Reactions were stopped by adding acetic acid (100 mM final). Readings were performed on a Pherastar Fluorescent Reader (BMG). λ Emission 380 nm; λ Excitation=460 nm.

USP8 [2] = target: T1, USP8; assay: USP8 activity assay, Ub-AMC substrate; assay type: biochemical; parameters: His tag (pFastBac-HT vector); made in house; host or cells: Sf9 or High Five insect cells, baculovirus; conditions: UbAMC substrate 300 nM, USP8 1.36 nM
Procedure: USP8 was diluted in USP buffer (50 mM Tris HCl; 0.5 mM EDTA; 5 mM DTT; 0.01% Triton X-100; Bovine Serum Albumin 0.05 mg·ml^−1 pH8.8). Compounds stocks (100 mM) were stored at −20° C. in DMSO.
as §1, with “USP8” for “USP5”, “The concentrations of the enzyme (USP5) in specificity assays was 300 pM.” left out, “nm:” for “nm;”

Measured: IC50

COc1ccccc1CCC(=O)N1CCC(O)(Cn2cnc3ccccc3c2=O)CC1 [Example 10, 3-({4-hydroxy-1-[3-(2-methoxyphenyl)propanoyl]piperidin-4-yl}methyl)-3,4-dihydroquinazolin-4-one]
> 200 µM: all assays above

CCC(CC)C(=O)N1CCC(O)(Cn2cnc3cc(Cl)ccc3c2=O)CC1 [Example 9, 7-chloro-3-{[1-(2-ethylbutanoyl)-4-hydroxypiperidin-4-yl]methyl}-3,4-dihydroquinazolin-4-one]
> 200 µM: all assays above

CC(Cc1cccs1)C(=O)N1CCC(O)(Cn2cnc3cc(Cl)ccc3c2=O)CC1 (stereo not drawn) [Example 11, 7-chloro-3-({4-hydroxy-1-[2-methyl-3-(thiophen-2-yl)propanoyl]piperidin-4-yl}methyl)-3,4-dihydroquinazolin-4-one]
> 200 µM: all assays above

CC(Cc1ccccc1)C(=O)N1CCC(O)(Cn2cnc3cc(Cl)ccc3c2=O)CC1 (stereo not drawn) [Example 14, 3-{[1-(2-benzylpropanoyl)-4-hydroxypiperidin-4-yl]methyl}-7-chloro-3,4-dihydroquinazolin-4-one]
> 200 µM: all assays above

CC(C)C(=O)N1CCC(O)(Cn2cnc3ccccc3c2=O)CC1 [Example 6, 3-{[4-hydroxy-1-(2-methylpropanoyl)piperidin-4-yl]methyl}-3,4-dihydroquinazolin-4-one]
> 200 µM: all assays above

O=C(CCc1ccccc1)N1CCC(O)(Cn2cnc3ccccc3c2=O)CC1 [Example 1, 3-{[4-hydroxy-1-(3-phenylpropanoyl)piperidin-4-yl]methyl}-3,4-dihydroquinazolin-4-one]
> 200 µM: all assays above

CC(Cc1ccccc1)C(=O)N1CCC(O)(Cn2cnc3ccccc3c2=O)CC1 (stereo not drawn) [Example 13, 3-{[1-(2-benzylpropanoyl)-4-hydroxypiperidin-4-yl]methyl}-3,4-dihydroquinazolin-4-one]
> 200 µM: all assays above

O=C(CCC1CCCC1)N1CCC(O)(Cn2cnc3ccccc3c2=O)CC1 [Example 3, 3-{[1-(3-cyclopentylpropanoyl)-4-hydroxypiperidin-4-yl]methyl}-3,4-dihydroquinazolin-4-one]
> 200 µM: all assays above

CC(Cc1cccs1)C(=O)N1CCC(O)(Cn2cnc3ccccc3c2=O)CC1 (stereo not drawn) [Example 5, 3-({4-hydroxy-1-[2-methyl-3-(thiophen-2-yl)propanoyl]piperidin-4-yl}methyl)-3,4-dihydroquinazolin-4-one]
> 200 µM: all assays above

COc1cc2ncn(CC3(O)CCN(C(=O)C(C)C)CC3)c(=O)c2cc1OC [Example 7, 3-{[4-hydroxy-1-(2-methylpropanoyl)piperidin-4-yl]methyl}-6,7-dimethoxy-3,4-dihydroquinazolin-4-one]
> 200 µM: all assays above

O=C(CCc1cccs1)N1CCC(O)(Cn2cnc3ccccc3c2=O)CC1 [Example 12, 3-({4-hydroxy-1-[3-(thiophen-2-yl)propanoyl]piperidin-4-yl}methyl)-3,4-dihydroquinazolin-4-one]
> 200 µM: all assays above

O=C(CCC1CCCC1)N1CCC(O)(Cn2cnc3cc(Cl)ccc3c2=O)CC1 [Example 4, 7-chloro-3-{[1-(3-cyclopentylpropanoyl)-4-hydroxypiperidin-4-yl]methyl}-3,4-dihydroquinazolin-4-one]
> 200 µM: all assays above
